# Results as given in patent US7459414B2, “Herbicides” (Syngenta Crop Protection, Inc., priority 2002, dated 2008).
# Experiments:
# Format in all cases: in vivo
# [1] = tested on: Digitaria (Dig); test: Example B1 pre-emergence herbicidal action (comparison test); settings: 500 g of active ingredient/ha; 3 weeks after application; scale of nine ratings, 1 to 4 = good to very good action
# Protocol: (§1) Monocotyledonous and dicotyledonous weeds are sown in plastics pots in standard soil. Immediately after sowing, the test substances are applied in the form of an aqueous suspension (prepared from a 25% wettable powder (Example F3, b)) or in the form of an emulsion (prepared from a 25% emulsifiable concentrate (Example F1, c)) (500 liters of water/ha). The rate of application is 500 g of active substance/ha. The test plants are then grown in the greenhouse under optimum conditions. The evaluation is carried out 3 weeks after application, using a scale of nine ratings (1=total damage, 9=no action). Ratings of from 1 to 4 (especially from 1 to 3) indicate good to very good herbicidal action. Test plants: Alopecurus (Alo), Avena (Ave), Lolium (Lol), Setaria (Set), Panicum (Pan), Sorghum (Sor), Digitaria (Dig), Echinochloa (Ech) and Brachiaria (Bra).
# [2] = tested on: Sorghum (Sor); test: as above; set-up: key: 1=total damage; 9=no action; settings: 500 g of active ingredient/ha; 3 weeks after application; scale of nine ratings, 1 to 4 = good to very good action
# Protocol: as §1
# [3] = tested on: Brachiaria (Bra); test: as above; set-up: key: 1=total damage; 9=no action; settings: 500 g of active ingredient/ha; 3 weeks after application; scale of nine ratings, 1 to 4 = good to very good action
# Protocol: as §1
# [4] = tested on: Alopecurus (Alo); test: as above; set-up: key: 1=total damage; 9=no action; settings: 500 g of active ingredient/ha; 3 weeks after application; scale of nine ratings, 1 to 4 = good to very good action
# Protocol: as §1
# [5] = tested on: Avena (Ave); test: as above; set-up: key: 1=total damage; 9=no action; settings: 500 g of active ingredient/ha; 3 weeks after application; scale of nine ratings, 1 to 4 = good to very good action
# Protocol: as §1
# [6] = tested on: Setaria (Set); test: as above; set-up: key: 1=total damage; 9=no action; settings: 500 g of active ingredient/ha; 3 weeks after application; scale of nine ratings, 1 to 4 = good to very good action
# Protocol: as §1
# [7] = tested on: Panicum (Pan); test: as above; set-up: key: 1=total damage; 9=no action; settings: 500 g of active ingredient/ha; 3 weeks after application; scale of nine ratings, 1 to 4 = good to very good action
# Protocol: as §1
# [8] = tested on: Lolium (Lol); test: as above; set-up: key: 1=total damage; 9=no action; settings: 500 g of active ingredient/ha; 3 weeks after application; scale of nine ratings, 1 to 4 = good to very good action
# Protocol: as §1
# [9] = tested on: Echinochloa (Ech); test: as above; set-up: key: 1=total damage; 9=no action; settings: 500 g of active ingredient/ha; 3 weeks after application; scale of nine ratings, 1 to 4 = good to very good action
# Protocol: as §1
# [10] = tested on: Avena (Ave); test: Example B3 pre-emergence herbicidal action, MERGE oil additive 0.7% (Table B3); set-up: key: 1=total damage; 9=no action; settings: 500 g of active substance/ha; MERGE oil additive 0.7% by weight of the spray mixture; evaluation 3 weeks after application; scale of nine ratings
# Protocol: (§2) Monocotyledonous and dicotyledonous weeds are sown in standard soil in plastics pots. Immediately after sowing, the test substances are applied in the form of an aqueous suspension (prepared from a 25% wettable powder (Example F3, b)) or in the form of an emulsion (prepared from a 25% emulsifiable concentrate (Example F1, c)) (500 liters of water/ha). The rate of application is 500 g of active substance/ha. The test plants are then grown in the greenhouse under optimum conditions. The evaluation is carried out 3 weeks after application, sing a scale of nine ratings (1=total damage, 9=no action). Ratings of from 1 to 4 (especially from 1 to 3) indicate good to very good herbicidal action. Test plants: Avena (Ave), Lolium (Lol), Setaria (Set).
# [11] = tested on: Setaria (Set); test: as above; set-up: key: 1=total damage; 9=no action; settings: 500 g of active substance/ha; MERGE oil additive 0.7% by weight of the spray mixture; evaluation 3 weeks after application; scale of nine ratings
# Protocol: as §2
# [12] = tested on: Lolium (Lol); test: as above; set-up: key: 1=total damage; 9=no action; settings: 500 g of active substance/ha; MERGE oil additive 0.7% by weight of the spray mixture; evaluation 3 weeks after application; scale of nine ratings
# Protocol: as §2
# [13] = tested on: Sorghum (Sor); test: Example B2 post-emergence herbicidal action (comparison test); set-up: key: 1=total damage; 9=no action; settings: 250 g of active ingredient/ha; 3- to 6-leaf stage; 3 weeks after application; scale of nine ratings, 1 to 4 = good to very good action
# Protocol: (§3) Monocotyledonous and dicotyledonous weeds are grown in standard soil in plastics pots under greenhouse conditions. The test substances are applied to the test plants at the 3- to 6-leaf stage. […] suspension (prepared from a 25% wettable powder (Example F3, b)) or in the form of an emulsion (prepared from a 25% emulsifiable concentrate (Example F1, c)) (500 liters of water/ha). The evaluation is carried out 3 weeks after application, using a scale of nine ratings (1=total damage, 9=no action). Ratings of from 1 to 4 (especially from 1 to 3) indicate good to very good herbicidal action. Test plants: Alopecurus (Alo), Avena (Ave), Lolium (Lol), Setaria (Set), Panicum (Pan), Sorghum (Sor), Digitaria (Dig), Echinocloa (Ech) and Brachiaria (Bra).
# [14] = tested on: Brachiaria (Bra); test: as above; set-up: key: 1=total damage; 9=no action; settings: 250 g of active ingredient/ha; 3- to 6-leaf stage; 3 weeks after application; scale of nine ratings, 1 to 4 = good to very good action
# Protocol: as §3
# [15] = tested on: Echinocloa (Ech); test: as above; set-up: key: 1=total damage; 9=no action; settings: 250 g of active ingredient/ha; 3- to 6-leaf stage; 3 weeks after application; scale of nine ratings, 1 to 4 = good to very good action
# Protocol: as §3
# [16] = tested on: Alopecurus (Alo); test: as above; set-up: key: 1=total damage; 9=no action; settings: 250 g of active ingredient/ha; 3- to 6-leaf stage; 3 weeks after application; scale of nine ratings, 1 to 4 = good to very good action
# Protocol: as §3
# [17] = tested on: Avena (Ave); test: as above; set-up: key: 1=total damage; 9=no action; settings: 250 g of active ingredient/ha; 3- to 6-leaf stage; 3 weeks after application; scale of nine ratings, 1 to 4 = good to very good action
# Protocol: as §3
# [18] = tested on: Setaria (Set); test: as above; set-up: key: 1=total damage; 9=no action; settings: 250 g of active ingredient/ha; 3- to 6-leaf stage; 3 weeks after application; scale of nine ratings, 1 to 4 = good to very good action
# Protocol: as §3
# [19] = tested on: Panicum (Pan); test: as above; set-up: key: 1=total damage; 9=no action; settings: 250 g of active ingredient/ha; 3- to 6-leaf stage; 3 weeks after application; scale of nine ratings, 1 to 4 = good to very good action
# Protocol: as §3
# [20] = tested on: Lolium (Lol); test: as above; set-up: key: 1=total damage; 9=no action; settings: 250 g of active ingredient/ha; 3- to 6-leaf stage; 3 weeks after application; scale of nine ratings, 1 to 4 = good to very good action
# Protocol: as §3
# [21] = tested on: Avena (Ave); test: Example B4 post-emergence herbicidal action, MERGE oil additive 0.7% (Table B4); set-up: key: 1=total damage; 9=no action; settings: 500 g of active substance per hectare; applied at 3- to 6-leaf stage; MERGE oil additive 0.7% by weight of the spray mixture; evaluation 3 weeks after application; scale of nine ratings
# Protocol: (§4) Monocotyledonous and dicotyledonous weeds are grown in standard soil in plastics pots under greenhouse conditions. The test substances are applied to the test plants at the 3- to 6-leaf stage. The test substances are applied at a rate of application of 500 g of active substance per hectare in the form of an aqueous suspension (prepared from a 25% wettable powder (Example F3, b)) or in the form of an emulsion (prepared from a 25% emulsifiable concentrate (Example F1, c)) (500 liters of water/ha). The evaluation is carried out 3 weeks after application, using a scale of nine ratings (1=total damage, 9=no action). Ratings of from 1 to 4 (especially from 1 to 3) indicate good to very good herbicidal action. Herbicidal Action After the Emergence of the Plants (Post-emergence Action) of Compounds of the Present Invention (for Description See Example B2) Test plants: Avena (Ave), Lolium (Lol), Setaria (Set).
# [22] = tested on: Setaria (Set); test: as above; set-up: key: 1=total damage; 9=no action; settings: 500 g of active substance per hectare; applied at 3- to 6-leaf stage; MERGE oil additive 0.7% by weight of the spray mixture; evaluation 3 weeks after application; scale of nine ratings
# Protocol: as §4
# [23] = tested on: Lolium (Lol); test: as above; set-up: key: 1=total damage; 9=no action; settings: 500 g of active substance per hectare; applied at 3- to 6-leaf stage; MERGE oil additive 0.7% by weight of the spray mixture; evaluation 3 weeks after application; scale of nine ratings
# Protocol: as §4
# [24] = tested on: Digitaria (Dig); test: Example B2 post-emergence herbicidal action (comparison test); settings: 250 g of active ingredient/ha; 3- to 6-leaf stage; 3 weeks after application; scale of nine ratings, 1 to 4 = good to very good action
# Protocol: as §3
structure (smiles),measurement,setting,value
CCc1cc(C)cc(CC)c1-c1c(OC(=O)C(C)(C)C)n2n(c1=O)CCCC2 [1.02],"Pre-emergence action rating, Dig",[1],4
same,"Pre-emergence action rating, Sor",[2],1
same,"Pre-emergence action rating, Bra",[3],1
same,"Pre-emergence action rating, Alo",[4],1
same,"Pre-emergence action, rating, Ave",[5],1
same,"Pre-emergence action, rating, Set",[6],1
same,"Pre-emergence action rating, Pan",[7],1
same,"Pre-emergence action, rating, Lol",[8],1
same,"Pre-emergence action rating, Ech",[9],1
same,"Pre-emergence action, rating, Ave",[10],1
same,"Pre-emergence action, rating, Set",[11],1
same,"Pre-emergence action, rating, Lol",[12],1
same,"Post-emergence action rating, Sor",[13],1
same,"Post-emergence action rating, Bra",[14],1
same,"Post-emergence action rating, Ech",[15],1
same,"Post-emergence action rating, Alo",[16],1
same,"Post-emergence action, rating, Ave",[17],1
same,"Post-emergence action, rating, Set",[18],1
same,"Post-emergence action rating, Pan",[19],1
same,"Post-emergence action, rating, Lol",[20],1
same,"Post-emergence action, rating, Ave",[21],1
same,"Post-emergence action, rating, Set",[22],1
same,"Post-emergence action, rating, Lol",[23],1
same,"Post-emergence action rating, Dig",[24],2
